Measured values from patent US10555894B2, “Plant extract comprising sucrose esters as an active agent for use in cosmetic, dermatological or nutricosmetic composition” (COSMO INTERNATIONAL INGREDIENTS, priority 2014, dated 2020).

Assays:
Collagen IV = assay: Expression of Collagen IV in fibroblasts by immunocytology, fluorescence scoring; type: cell-based, human; conditions: positive control element, 48 hours
Procedure: The two concentrations of 4.10-5% and 8.10-5% of the Uchuva extract have been tested.
The cells are introduced on D0, in Millicell 8 wells slides, at a rate of 4.103 cells per ml in 400 μl of complete medium. They are treated on D1 for 48 hours with culture in a complete medium. The concentrations of the active to be tested are expressed in % of the extract. The stock solution of the extract has been prepared in DMSO with 20% concentration (w/v). The first dilution has been made to 1/1000th. The following dilutions have been made while maintaining the final DMSO concentration at 0.1%. After 48 hours, the cells are fixed by an alcohol/acid mixture. Then, the cells are marked using an anti-collagen IV antibody (Rockland) diluted in PBS+BSA/tween to 1/50 for 1 hour. The slides are then rinsed twice by PBS. The revelation of the specific marking is done using an FITC coupled secondary antibody (Santa-Cruz) diluted in PBS+BSA/tween to 1/100 for 1 hour. The slides are then rinsed twice by PBS and put between the slide and the cover glass using the RotiMount Fluocare+DAPI (Roth) mounting fluid.
Photos in green and blue are taken using a DP72 camera (Olympus, Japan) connected to a BX-60 epifluorescence microscope (Olympus, Japan).
The photos have been observed by two readers and a scoring of the intensity of fluorescence has done on a linear scale from 0 (no marking) to 4 (very high marking). […]

[1] = tested on: coding genes for differentiation proteins of the keratinocyte in normal human epidermal keratinocytes (NHEK); assay: Transcriptomic analysis (Affymetrix U219 chip) of treated keratinocytes; type: cell-based; conditions: 0.8 μg/ml; for expression of coding genes for differentiation proteins of the keratinocyte: KRT1, IVL, DSG1, DSC1, SPRR2A, SPRR2E, SPRR1A, SPRR2D, CALML5, SBSN and KRTDAP: 4 or 24 hours; for effect on the differentiation of the keratinocytes: deduced from gene expression
Procedure: (§1) The effects of fractions I, II and […] have been researched on by transcriptomic analysis on models of normal human epidermal keratinocytes and human dermal fibroblasts. This global transcript expression analysis has been carried out after 4 to 24 hours of incubation by using the Affymetrix GeneAtlas™ platform and the U219 “full human transcriptome” chip containing 36,000 transcripts and variants.
(§2) • Cellular type: Normal human epidermal keratinocytes (NHEK) • Culture conditions: 37° C., 5% CO2 • Culture medium: Keratinocyte-SFM supplemented with Epidermal Growth Factor (EGF) 0.25 ng/ml Pituitary Extract (PE) 25 μg/ml Gentamycin 25 μg/ml • Test medium: Keratinocyte-SFM supplemented with Gentamycin 25 μg/ml Normal Human Dermal Fibroblasts (NHDF) • Cellular type: Normal human dermal fibroblasts (NHDF), • Culture conditions: 37° C., 5% CO2 • Culture medium: DMEM supplemented with • L-glutamine 2 mM • Penicillin 50 U/ml—Streptomycin 50 μg/ml • Calf foetal serum (CFS) 10% • Test medium: DMEM supplemented with • L-glutamine 2 mM • Penicillin 50 U/ml—Streptomycin 50 μg/ml • CFS 1% 2. Tested Compounds
The cells have been introduced and cultivated in the culture medium for 24 hours and then incubated in their test medium for another 24 hours. Then, the medium has been replaced by the test medium containing or not containing (control) the test compounds and the cells have been incubated for 4 or 24 hours. All the conditions have been completed in n=3.
At the end of the incubation, the culture supernatants have been removed and the cell layers have been rinsed with a PBS solution. The plates have been immediately dry frozen at −80° C.
The total RNA of each sample have been extracted using TriPure Isolation Reagent® as per the protocol recommended by the supplier. The quantity and quality of the RNA have been evaluated by capillary electrophoresis (Bioanalyzer 2100, Agilent).
The amplification of the RNA and the synthesis of the biotinylated RNA analogues (RNAa) have been carried out using the “GeneChip 3'IVT Express” kit (Affymetrix®). The single-strand complementary DNA (cDNA) have been synthesised by reverse transcription of the total RNA in the presence of oligo(dT). By action of a DNA polymerase, a double-stranded cDNA (ds DNA) has been synthesised. Biotinylated RNA have then been synthesised from the cDNA and in the presence of biotinylated ribonucleotide analogues. After a purification stage on magnetic beads, which enables to remove salts, enzymes and free nucleotides, the biotinylated RNA have been hydrolysed into fragments from 35 to 200 nucleotides with a peak at 100-120 nucleotides (fragmented targets). […]

[2] = tested on: normal human epidermal melanocytes (NHEM); assay: Synthesis of melanin in melanocytes stimulated by L-tyrosine; type: cell-based; conditions: L-tyrosine 1 mM, 10 days, tested at 5 μg/ml
Procedure: The depigmentation effect potential of the Uchuva extract has been researched in a model of normal human epidermal melanocytes (NHEM). The effect of the Uchuva extract on the synthesis of melanin has been evaluated after ten incubation days under conditions stimulated by L-tyrosine. In this test, the reference inhibitory molecule is lipoic acid. Its action mechanism calls for an inhibition of the expression of the MITF transcription factor (microphthalmia-associated transcription factor). This transcription factor is the major regulator of the expression of tyrosinase and its inhibition results in the reduction of the expression of tyrosinase, enzyme involved in the melanin synthesis. The melanocytes have been sown in 24 wells plate and cultivated in the culture medium for 24 hours. […] After incubation, the melanin has been extracted by lysis of the cells with a solution of NaOH 0.5 N. The optical density (OD) of the samples has been measured at 405 nm, then the quantity of melanin has been determined in comparison with a range of exogenous melanin (melanin curve including standards from 0.39 to 100 μg/ml). […] After dissociation of the cells and solubilisation of the formazan by addition of DMSO, the optical density (OD), which represents the number of living cells and their metabolic activity, has been measured with a 540 nm microplate reader (VERSAmax, Molecular Devices).

[3] = tested on: coding gene for fibrillin 1 (FBN1) in normal human dermal fibroblasts (NHDF); assay: Transcriptomic analysis (Affymetrix U219 chip) of treated fibroblasts; type: cell-based; conditions: 0.8 μg/ml
Procedure: as §1
as §2, with “Compounds […]” for “Compounds”
The total RNA of each sample have been extracted using TriPure Isolation Reagent® as per the protocol recommended by the supplier. The quantity and quality of the RNA have been evaluated by capillary electrophoresis (Bioanalyzer 2100, Agilent). […]

## C[C@H](O)[C@H](O)[C@@H](O)[C@@H](O)C=O [rhamnose]
Collagen IV
  increase in expression of Collagen IV, amplitude compared with the Uchuva extract: comparable

## CCCCCCCCCC(=O)O[C@H]1[C@@H](O[C@]2(CO)O[C@H](CO)[C@@H](O)[C@@H]2OC(=O)C(C)C)O[C@H](CO)[C@@H](OC(=O)C(C)C)[C@@H]1OC(=O)C(C)C [Fraction I, 3-O-(2-methyl-1-oxopropyl)-β-D-fructofuranosyl (1→2)-3,4-bis(2-methylpropanoate)-2-decanoate-α-D-glucopyranoside]
[1]
  expression of coding genes for differentiation proteins of the keratinocyte: KRT1, IVL, DSG1, DSC1, SPRR2A, SPRR2E, SPRR1A, SPRR2D, CALML5, SBSN and KRTDAP: expression inhibitions
  effect on the differentiation of the keratinocytes: anti differentiating effect

## O=C(O)CCCC[C@@H]1CCSS1 (racemic) [lipoic acid]
[2]
  inhibition of the synthesis of melanin: 108%

## CCCCCCCCCC(=O)O[C@H]1[C@@H](O[C@]2(CO)O[C@H](CO)[C@@H](O)[C@@H]2OC(=O)CC(C)C)O[C@H](CO)[C@@H](OC(=O)C(C)C)[C@@H]1OC(=O)C(C)C [Fraction II, 3-O-(3-methyl-1-oxobutyl)-β-D-fructofuranosyl (1→2)-3,4-bis(2-methylpropanoate)-2-decanoate-α-D-glucopyranoside]
[3]; 4 hours
  expression of the coding gene for fibrillin 1 (FBN1), fold change: 3.27 X
[3]; 24 hours
  expression of the coding gene for fibrillin 1 (FBN1), fold change: 8.24 X
[1]
  expression of coding genes for differentiation proteins of the keratinocyte: KRT1, IVL, DSG1, DSC1, SPRR2A, SPRR2E, SPRR1A, SPRR2D, CALML5, SBSN and KRTDAP: expression inhibitions
  effect on the differentiation of the keratinocytes: anti differentiating effect
